Values joined by “and” are separate entries in the source; they are usually repeats but may differ in a detail not shown here. Equal entries are not always repeated. Toxic doses and inconclusive results are not listed.
Tested on: P388 leukemia ip, CD2F1 mice, survival T/C
Test: NCI In Vivo Anticancer Drug Screen. Data for tumor model P388 Leukemia (intraperitoneal) in CD2F1 (CDF1) mice
Conditions: endpoint: median survival time, higher = longer survival
Method in brief: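 Mice carrying the transplanted tumor received test compound or vehicle. Survival was recorded in each group, and the value is the treated-group measurement divided by that of the vehicle-treated control group.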

[1] = dose: 60.0 mg/kg/injection, schedule: Q01DX005 (ip), vehicle: Klucel (hydroxypropylcellulose) (HPC)
[2] = dose: 120.0 mg/kg/injection, schedule: Q01DX005 (ip), vehicle: Klucel (hydroxypropylcellulose) (HPC)
[3] = dose: 12.5 mg/kg/injection, schedule: Q01DX009 (ip), vehicle: Klucel (hydroxypropylcellulose) (HPC)
[4] = dose: 25.0 mg/kg/injection, schedule: Q01DX009 (ip), vehicle: Klucel (hydroxypropylcellulose) (HPC)

With `Nc1nc2c(ncn2C2OC(CO)C(O)C2O)c(=O)[nH]1` (stereo not given) the T/C (dose: 25.0 mg/kg/injection, schedule: Q04DX003 (ip), vehicle: saline with Tween-80) was 103 % of control and 106 % of control, the T/C (dose: 50.0 mg/kg/injection, schedule: Q04DX003 (ip), vehicle: saline with Tween-80) was 120 % of control and the T/C (dose: 100.0 mg/kg/injection, schedule: Q01DX009 (ip), vehicle: suspension in saline) was 110 % of control. The T/C (dose: 100.0 mg/kg/injection, schedule: Q04DX003 (ip), vehicle: saline with Tween-80) was 90 % of control, the T/C (dose: 200.0 mg/kg/injection, schedule: Q01DX009 (ip), vehicle: saline with Tween-80) was 111 % of control and the T/C (dose: 200.0 mg/kg/injection, schedule: Q01DX009 (ip), vehicle: suspension in saline) was 92 % of control. The T/C (dose: 300.0 mg/kg/injection, schedule: Q01DX009 (ip), vehicle: saline with Tween-80) was 106 % of control, the T/C (dose: 400.0 mg/kg/injection, schedule: Q01DX009 (ip), vehicle: saline with Tween-80) was 102 % of control and the T/C (dose: 400.0 mg/kg/injection, schedule: Q01DX009 (ip), vehicle: suspension in saline) was 119 % of control and 97 % of control. For the same compound, the T/C (dose: 400.0 mg/kg/injection, schedule: Q04DX003 (ip), vehicle: saline with Tween-80) was 100 % of control, the T/C (dose: 600.0 mg/kg/injection, schedule: Q01DX009 (ip), vehicle: saline with Tween-80) was 90 % of control and the T/C (dose: 800.0 mg/kg/injection, schedule: Q01DX009 (ip), vehicle: saline with Tween-80) was 114 % of control. The T/C (dose: 800.0 mg/kg/injection, schedule: Q01DX009 (ip), vehicle: suspension in saline) was 113 % of control and 94 % of control, the T/C (dose: 1200.0 mg/kg/injection, schedule: Q01DX009 (ip), vehicle: saline with Tween-80) was 95 % of control and the T/C (dose: 1600.0 mg/kg/injection, schedule: Q01DX009 (ip), vehicle: saline with Tween-80) was 99 % of control. For the same compound, the T/C (dose: 1600.0 mg/kg/injection, schedule: Q01DX009 (ip), vehicle: suspension in saline) was 112 % of control and 95 % of control, the T/C (dose: 2400.0 mg/kg/injection, schedule: Q01DX009 (ip), vehicle: saline with Tween-80) was 100 % of control and the T/C (dose: 2400.0 mg/kg/injection, schedule: Q01DX009 (ip), vehicle: suspension in saline) was 117 % of control.
In the case of `CC(=O)[C@]1(O)Cc2c(O)c3c(c(O)c2[C@@H](OC2CC(N)C(O)C(C)O2)C1)C(=O)c1c(OCc2ccccc2)cccc1C3=O` (stereo not given in full), the T/C (dose: 12.5 mg/kg/injection, schedule: Q04DX003 (ip), vehicle: distilled water + Tween-80) is reported as 101 % of control and the T/C (dose: 100.0 mg/kg/injection, schedule: Q04DX003 (ip), vehicle: distilled water + Tween-80) is reported as 91 % of control.
In the case of `COC1=C(C#N)C(c2ccccc2)CC(N)=N1` (stereo not given), the T/C [1] is reported as 112 % of control and the T/C [2] is reported as 94 % of control.
For `CN=c1s[se]c2ccccc12`, the T/C [3] was 102 % of control and the T/C [4] was 94 % of control.
For `CC[n+]1cccc(C(=O)c2ccccc2)c1`, the T/C (dose: 3.75 mg/kg/injection, schedule: Q01DX005 (ip), vehicle: saline) was 103 % of control, the T/C (dose: 7.5 mg/kg/injection, schedule: Q01DX005 (ip), vehicle: saline) was 97 % of control and the T/C (dose: 15.0 mg/kg/injection, schedule: Q01DX005 (ip), vehicle: saline) was 102 % of control. The T/C (dose: 30.0 mg/kg/injection, schedule: Q01DX005 (ip), vehicle: saline) was 105 % of control.
In the case of `C[N+]1(Cc2ccc(C(N)=O)cc2)CCC(CCC2CC[N+](C)(Cc3ccc(C(N)=O)cc3)CC2)CC1` (stereo not given), the T/C (dose: 0.78 mg/kg/injection, schedule: Q01DX005 (ip), vehicle: saline with Tween-80) is reported as 93 % of control, the T/C (dose: 1.56 mg/kg/injection, schedule: Q01DX005 (ip), vehicle: saline with Tween-80) is reported as 101 % of control and the T/C (dose: 3.13 mg/kg/injection, schedule: Q01DX005 (ip), vehicle: saline with Tween-80) is reported as 90 % of control.
`O=C1OC(O)c2cccc3cccc1c23` (stereo not given) was tested, and the T/C [1] was 98 % of control, the T/C [2] was 100 % of control and the T/C (dose: 240.0 mg/kg/injection, schedule: Q01DX005 (ip), vehicle: Klucel (hydroxypropylcellulose) (HPC)) was 94 % of control.
With `CC1CC(C)OC(C(C)(C)C)O1` (stereo not given) the T/C (dose: 60.0 mg/kg/injection, schedule: Q01DX005 (ip), vehicle: saline) was 107 % of control, the T/C (dose: 120.0 mg/kg/injection, schedule: Q01DX005 (ip), vehicle: saline) was 109 % of control and the T/C (dose: 240.0 mg/kg/injection, schedule: Q01DX005 (ip), vehicle: saline) was 107 % of control.
For `CC(=O)C(N=Nc1cc([N+](=O)[O-])cc(S(=O)(=O)O)c1O)C(=O)Nc1ccccc1.[Cr]` (stereo not given), the T/C (dose: 50.0 mg/kg/injection, schedule: Q01DX009 (ip), vehicle: saline) was 107 % of control, the T/C (dose: 100.0 mg/kg/injection, schedule: Q01DX009 (ip), vehicle: saline) was 99 % of control and the T/C (dose: 200.0 mg/kg/injection, schedule: Q01DX009 (ip), vehicle: saline) was 97 % of control.
In the case of `COc1cc2cc[n+](C)c(Cc3ccccc3)c2cc1OC`, the T/C (dose: 3.12 mg/kg/injection, schedule: Q01DX009 (ip), vehicle: Klucel (hydroxypropylcellulose) (HPC)) is reported as 111 % of control, the T/C (dose: 6.25 mg/kg/injection, schedule: Q01DX009 (ip), vehicle: Klucel (hydroxypropylcellulose) (HPC)) is reported as 111 % of control and the T/C [3] is reported as 114 % of control. The T/C [4] was 121 % of control and the T/C (dose: 50.0 mg/kg/injection, schedule: Q01DX009 (ip), vehicle: Klucel (hydroxypropylcellulose) (HPC)) was 160 % of control.
